Laboratory results published in patent publication US9962341B2, “Active pharmaceutical ingredient (API) comprising cannabinoids for use in the treatment of cancer” (GW Pharma Limited, priority 2014, dated 2018).

Assays:
Format in all cases: cell-based
[1] = test system: PANC-1; test: Cell viability (CellTiter-Blue, 72 h), PANC-1 pancreatic cancer cells; conditions: Homo sapiens; PANC-1, 1% FBS, 72 h; read-out: Cell line IC50 value
Description: (§1) The following cell lines were tested in this example: Lung Cancer (A549, NCI-H460); Pancreatic cancer (PANC1, Mia-Pa-Ca-2); Melanoma (WM115, A375); Ovarian cancer (OVCAR3, SKOV3); Gastric cancer (MKN45, HGC-27); Renal cancer (ACHN) and Bladder Cancer (RT112).
(§2) Each tumour cell line was maintained in vitro in RPMI 1640+10% heat inactivated FBS and 2 mM L-glutamine (growth media) at 37° C. in 5% CO2 and humidified conditions. The cells were harvested, washed, re-suspended into growth medium and counted. The cells were re-suspended into assay media (RPMI 1640+5% heat inactivated FBS+ and 2 mM L-glutamine) at 4×10^4 cells/ml (dependent upon cell type) and plated into the middle 240 wells of 384 well tissue culture plates (Corning CellBind, black-wall plates) 25 μl/well aliquots; 50 μl of growth media was aliquoted into the outer wells. There were 3 plates for each cell line.
(§3) The plates were incubated overnight at 37° C., in 5% humidified CO2.
(§4) The phytocannabinoid test compounds were prepared in 100% DMSO vehicle at a stock concentration of 20 and 40 mM.
(§5) Starting with the 20 mM stock in DMSO, this was serially diluted (2 fold) in DMSO in a 96-well plate, to 20 (no dilution), 10, 5, 2.5, 1.25, 0.625, 0.315, 0.157 and […]. Following this, 10 ul of each compound dilution was diluted into 990 ul of 1% (v/v) FBS media in a deep well block making the final concentrations of 200, 100, 50, 25, 12.5, 6.25, 3.125, 1.56 and 0.79 μM (2× final assay concentrations and 1% DMSO).
(§6) An equal volume of each cannabinoid in the combination (stock concentration 40 mM) was mixed together to make a stock of 20 mM of each cannabinoid in DMSO. This was serially diluted (2 fold) in DMSO in a 96-well plate, to 20 (no dilution), 10, 5, 2.5, 1.25, 0.625, 0.315, 0.157 and […]. Following this, 10 ul of each combination dilution was diluted into 990 ul of 1% (v/v) FBS media in a deep well block making the final concentrations of 200, 100, 50, 25, 12.5, 6.25, 3.125, 1.56 and 0.79 μM (2× final assay concentrations and 1% DMSO).
(§7) Gemcitabine SOC was prepared in 100% DMSO to give a stock concentration of 20 mM. This was then serially diluted (3 fold) in DMSO in a 96-well plate, to 20 (no dilution), 6.6, 2.2, 0.741, 0.247, 0.082, 0.027, 0.009 and 0.003 mM. Following this, 10 ul of each dilution was further diluted into 990 ul of 1% (v/v) FBS media making the final concentrations of 200 (no dilution), 66.66, 22.22, 7.41, 2.47, 0.82, 0.27, 0.09, 0.03 μM (2× final assay concentrations and 1% DMSO).
(§8) The plates were incubated for 72 h at 37° C. in 5% humidified CO2. To develop the plates, at 72 h, 10 μl of CellTiter-Blue™ reagent was added to each test/blank well.
(§9) The plates were incubated at 37° C., 5% humidified CO2. Fluorescence was measured using a Flex II Station plate reader (570 nm excitation wavelength, 600 nm emission wavelength, 590 nm cut-off) after 3 h.
(§10) The phytocannabinoid compounds CBD, CBGA, CBG, CBDA, THCV and THC were tested on a panel of lung (A549, NCI-H460), pancreatic (PANC1, Mia-Pa-Ca-2), melanoma (WM115, A375), ovarian (OVCAR3, SKOV3), gastric (MKN45, HGC-27), renal (ACHN) and bladder (RT112) cancer cell lines according to the protocol for 72 h in media containing 1% FBS.
(§11) The IC50 values for each phytocannabinoid and combination of CBD with the other phytocannabinoids was calculated for each cell line. The raw data values expressed in relative fluorescent units were normalised to the vehicle for each individual plate and any reduction in fluorescence indicated a decrease in viability.
(§12) This calculation was as described in Example 1 above.

[2] = test system: Mia-Pa-Ca-2; test: Cell viability (CellTiter-Blue, 72 h), Mia-Pa-Ca-2 pancreatic cancer cells; conditions: Homo sapiens, MIA PaCa-2, 72 h, read-out: Cell line IC50 value
Description: as §1, §2, §3, §4, §5, §6, §7, §8, §9, §10, §11, §12

[3] = test system: WM115; test: Cell viability (CellTiter-Blue, 72 h), WM115 melanoma cells; conditions: WM115, 1% FBS, 72 h; read-out: Cell line IC50 value
Description: as §1, §2, §3, §4, §5, §6
(§13) Cisplatin (stock of 1 mg/ml=3.33 mM in water) was diluted in 1% FBS media to give a stock concentration of 1 mM. This was then diluted in 1% FBS media from the stock solution to 200 μM, then serially diluted (3-fold) in 1% FBS media to 200 (no dilution), 66.66, 22.22, 7.41, 2.47, 0.82, 0.27, 0.09, 0.03 μM (2× final assay concentrations; no DMSO).
as §8, §9, §10, §11, §12

[4] = test system: A375; test: Cell viability (CellTiter-Blue, 72 h), A375 melanoma cells; conditions: A375, 1% FBS, 72 h; read-out: Cell line IC50 value
Description: as §1, §2, §3, §4, §5, §6, §13, §8, §9, §10, §11, §12

[5] = test system: OVCAR3; test: Cell viability (CellTiter-Blue, 72 h), OVCAR3 ovarian cancer cells; conditions: OVCAR3, 1% FBS, 72 h; read-out: Cell line IC50 value
Description: as §1, §2, §3, §4, §5, §6, §13, §8, §9, §10, §11, §12

[6] = test system: SKOV3; test: Cell viability (CellTiter-Blue, 72 h), SKOV3 ovarian cancer cells; conditions: SKOV3, 1% FBS, 72 h; read-out: Cell line IC50 value
Description: as §1, §2, §3, §4, §5, §6, §13, §8, §9, §10, §11, §12

[7] = test system: MKN45; test: Cell viability (CellTiter-Blue, 72 h), MKN45 gastric cancer cells; conditions: MKN45, 1% FBS, 72 h; read-out: Cell line IC50 value
Description: as §1, §2, §3, §4, §5, §6, §13, §8, §9, §10, §11, §12

[8] = test system: HGC-27; test: Cell viability (CellTiter-Blue, 72 h), HGC-27 gastric cancer cells; conditions: HGC-27, 1% FBS, 72 h; read-out: Cell line IC50 value
Description: as §1, §2, §3, §4, §5, §6, §13, §8, §9, §10, §11, §12

[9] = test system: RT112; test: Cell viability (CellTiter-Blue, 72 h), RT112 bladder cancer cells; conditions: RT112, 1% FBS, 72 h; read-out: Cell line IC50 value
Description: as §1, §2, §3, §4, §5, §6, §13, §8, §9, §10, §11, §12

| Structure (SMILES) | IC50 [1] | IC50 [2] | IC50 [3] | IC50 [4] | IC50 [5] | IC50 [6] | IC50 [7] | IC50 [8] | IC50 [9] |
| --- | --- | --- | --- | --- | --- | --- | --- | --- | --- |
| Nc1ccn([C@@H]2O[C@H](CO)[C@@H](O)C2(F)F)c(=O)n1 [Gemcitabine, reference compound] | > 100 µM | > 100 µM | – | – | – | – | – | – | – |
| N.N.[Cl][Pt][Cl] [Cisplatin, reference compound] | – | – | 35 µM | 6.3 µM | 7.7 µM | 4.5 µM | 9.7 µM | 47 µM | 27 µM |
